# Experimental data reported in patent US11008340B2, “Modulators of ROR-gamma” (Vitae Pharmaceuticals, LLC, priority 2015, dated 2021).
# pKi: −log10 of the molar value.
# Target: T1, recombinant RORγ Ligand Binding Domain (LBD) protein (Homo sapiens, UniProt P51449)
# T1 construct: 6×His; GST
# T1 sequence (P51449 269-508 limits assumed): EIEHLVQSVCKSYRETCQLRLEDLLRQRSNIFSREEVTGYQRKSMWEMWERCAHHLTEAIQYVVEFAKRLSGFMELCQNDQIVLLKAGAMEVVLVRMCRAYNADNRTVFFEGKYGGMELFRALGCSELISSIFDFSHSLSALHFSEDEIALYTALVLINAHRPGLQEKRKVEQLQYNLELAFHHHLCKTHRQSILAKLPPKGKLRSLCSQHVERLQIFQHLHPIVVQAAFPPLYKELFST
# Test: Radio-Ligand RORγ Binding Assay (Assay 1)
# Details: competition with 25-hydroxy [26,27-3H]-cholesterol, SPA; class symbols; read-out: Avg ROR Bind Ki
# Method: Radio-Ligand RORγ Binding Assay (Assay 1)
# Compounds described herein were tested for ability to bind to RORγ in a cell-free competition assay with commercially available radio-ligand (RL), 25-hydroxy [26,27-^3H]-cholesterol (PerkinElmer, Cat. #NET674250UC), for a ligand binding site on a recombinant RORγ Ligand Binding Domain (LBD) protein expressed as a 6×His-Glutathione-S-Transferase (GST) fusion. The assay was performed in 96-well SPA plates (PerkinElmer, Cat. #1450-401) in 50 mM HEPES buffer, pH 7.4, containing 150 mM NaCl, 5 mM MgCl2, 10% (v/v) glycerol, 2 mM CHAPS, 0.5 mM 3-octylglucopyranoside and 5 mM DTT. Tested compounds were dissolved in DMSO, and semi-log (3.162×) serial dilutions of the compounds were prepared in the same solvent. Two μL of the DMSO solutions were mixed with 28 μL of 8.6 nM 25-hydroxy [26,27-^3H]-cholesterol and 50 μL of 24 nM RORγ LBD. The plate was shaken at 700 rpm for 20 min and incubated for 10 min at rt, after which 40 μL of poly-Lys YSi SPA beads (PerkinElmer, Cat. #RPNQ0010) were added to achieve 50 μg of the beads per well. The plate was incubated on an orbital shaker for 20 min and then for 10 min without agitation at rt. SPA signal for tritium beta radiation was registered on PerkinElmer Microbeta plate reader. […] The percent inhibition vs. concentration data were fit into a four-parameter model, and IC50 values were calculated from the fit as the concentrations corresponding to the inflection points on the dose-response curves. Inhibitory constants (Ki) were calculated using the following equation, where [RL] is the concentration in the assay and KD is a dissociation constant of 25-hydroxy [26,27-^3H]-cholesterol: […]
row,pKi,SMILES
1,6.00 to 7.00,"CCS(=O)(=O)c1ccc(CNC(=O)c2ccc3c(OC[C@H]4CC[C@H](C(F)(F)F)CC4)ncnc3c2)cc1 [Hy1C-2, N-(4-(ethylsulfonyl)benzyl)-4-(((1r,4r)-4-(trifluoromethyl)cyclohexyl)methoxy)quinazoline-7-carboxamide]"

# Same assay, conditions: radio-ligand competition, 25-hydroxy [26,27-3H]-cholesterol, RORγ LBD; read-out: Avg ROR Bind Ki
row,pKi,SMILES
1,6.00 to 7.00,"CC[C@@H]1CN(c2ncc(C(F)(F)F)cn2)Cc2cc(C(=O)NCc3ccc(S(=O)(=O)CC)cn3)ccc21 (single isomer, unassigned) [Hy7-10.2]"
2,< 6.00,"CCS(=O)(=O)c1ccc(CNC(=O)c2ccc3c(c2)CN(c2ncc(-c4ccn(C)c(=O)c4)cn2)C[C@@H]3C(C)C)cc1 (single isomer, unassigned) [Hy7-25.2]"
3,6.00 to 7.00,"CCS(=O)(=O)c1ccc(CNC(=O)c2ccc3c(Oc4ccc(C(F)(F)F)cc4)nccc3c2)cc1 [Hy1A-2, N-(4-(ethylsulfonyl)benzyl)-1-(4-(trifluoromethyl)phenoxy)isoquinoline-6-carboxamide]"
4,< 6.00,"CCS(=O)(=O)c1ccc(CNC(=O)c2ccc3c(c2)CN(c2ncc(-c4ccc(=O)[nH]c4)cn2)C[C@@H]3C(C)C)cc1 (single isomer, unassigned) [Hy7-21.2]"
5,6.00 to 7.00,"CC[C@H]1CN(C2CCC(F)(F)CC2)Cc2cc(C(=O)N[C@@H](CO)c3ccc(S(=O)(=O)CC)cc3)ccc21 (single isomer, unassigned) [Hy7-32.2]"
6,6.00 to 7.00,"CCS(=O)(=O)c1ccc(CNC(=O)c2ccc3c(OCc4ccc(C(F)(F)F)cc4)cc(C)nc3c2)cc1 [Hy1B-1, N-(4-(ethylsulfonyl)benzyl)-2-methyl-4-((4-(trifluoromethyl)benzyl)oxy)quinoline-7-carboxamide]"
7,6.00 to 7.00,"CCS(=O)(=O)c1ccc(CNC(=O)c2ccc3c(c2)CCN(Cc2ccc(C#N)nc2)[C@@H]3C(C)C)cc1 (single isomer, unassigned) [Hy2A-17.2]"
8,6.00 to 7.00,"CCS(=O)(=O)c1ccc(CNC(=O)c2ccc3c(c2)CCN(Cc2ccc(OC(F)F)nc2)[C@@H]3C(C)C)cc1 (single isomer, unassigned) [Hy2A-25.2]"
9,6.00 to 7.00,"CC[C@H]1CN(c2ncc(C(F)(F)F)cn2)Cc2cc(C(=O)N[C@@H](CO)c3ccc(S(=O)(=O)CC)cn3)ccc21 (single isomer, unassigned) [Hy7-18.3]"
10,< 6.00,"CC1c2ccc(C(=O)NCc3ccc(S(C)(=O)=O)cc3)cc2CCN1Cc1ccc(C#N)cc1 (racemic) [Hy2A-7, 2-(4-cyanobenzyl)-1-methyl-N-(4-(methylsulfonyl)benzyl)-1,2,3,4-tetrahydroisoquinoline-6-carboxamide]"
11,6.00 to 7.00,"CCOC(=O)c1cnc(N2CCc3cc(C(=O)NCc4ccc(S(=O)(=O)CC)cc4)ccc3[C@@H]2C(C)C)nc1 (single isomer, unassigned) [Hy2A-4.1]"
12,> 7.00,"CCC1CN(C2CCC(C(F)(F)F)CC2)Cc2cc(C(=O)NC(CO)c3ccc(S(=O)(=O)CC)cc3)ccc21 (single isomer, unassigned) [Hy7-35.3]"
13,6.00 to 7.00,"CCOC(=O)c1cnc(N2Cc3cc(C(=O)NCc4ccc(S(=O)(=O)CC)cc4)ccc3[C@@H](C(C)C)C2)nc1 (single isomer, unassigned) [Hy7-16.2]"
14,6.00 to 7.00,"CCS(=O)(=O)c1ccc(CNC(=O)c2ccc3c(c2)CCN(Cc2ccc(C#N)cc2)C3C)cc1 (racemic) [Hy2A-10, 2-(4-cyanobenzyl)-N-(4-(ethylsulfonyl)benzyl)-1-methyl-1,2,3,4-tetrahydroisoquinoline-6-carboxamide]"
15,< 6.00,"CCS(=O)(=O)c1ccc(CNC(=O)c2ccc3c(c2)CCN(Cc2ncc(C)cn2)[C@@H]3C(C)C)cc1 (single isomer, unassigned) [Hy2A-12.2]"
16,6.00 to 7.00,"CCS(=O)(=O)c1ccc(CNC(=O)c2ccc3c(OC[C@H]4CC[C@H](C(F)(F)F)CC4)cc(C)nc3c2)cc1 [Hy1B-2, N-(4-(ethylsulfonyl)benzyl)-2-methyl-4-(((1r,4r)-4-(trifluoromethyl)cyclohexyl)methoxy)quinoline-7-carboxamide]"
17,6.00 to 7.00,"CCOc1cnc(N2Cc3cc(C(=O)NCc4ccc(S(=O)(=O)CC)cc4)ccc3[C@@H](C(C)C)C2)nc1 (single isomer, unassigned) [Hy7-5.2]"
18,6.00 to 7.00,"CCS(=O)(=O)c1ccc(CNC(=O)c2ccc3c(c2)CCN(c2ncc(C#N)cn2)[C@H]3C(C)C)cc1 (single isomer, unassigned) [Hy2A-1.2]"
19,6.00 to 7.00,"CCC1CN(C2CCC(C(F)(F)F)CC2)Cc2cc(C(=O)NC(CO)c3ccc(S(=O)(=O)CC)cc3)ccc21 (single isomer, unassigned) [Hy7-35.4]"
20,6.00 to 7.00,"CCS(=O)(=O)c1ccc([C@H](CO)NC(=O)c2cn(C)c3c(OC[C@H]4CC[C@H](C(F)(F)F)CC4)nccc23)cc1 [Hy5-5, N-((R)-1-(4-(ethylsulfonyl)phenyl)-2-hydroxyethyl)-1-methyl-7-(((1r,4R)-4-(trifluoromethyl)cyclohexyl)methoxy)-1H-pyrrolo[2,3-c]pyridine-3-carboxamide]"
21,6.00 to 7.00,"CCS(=O)(=O)c1ccc(CNC(=O)c2cn(C)c3c(Oc4ccc(C(F)(F)F)cc4)nccc23)cc1 [Hy5-1, N-(4-(ethylsulfonyl)benzyl)-1-methyl-7-(4-(trifluoromethyl)phenoxy)-1H-pyrrolo[2,3-c]pyridine-3-carboxamide]"
22,6.00 to 7.00,"CCS(=O)(=O)c1ccc(CNC(=O)c2cnc3c(c2)CN(c2ncc(C(F)(F)F)cn2)CC3(C)C)cc1 [Hy7B-1, N-(4-(ethylsulfonyl)benzyl)-8,8-dimethyl-6-(5-(trifluoromethyl)pyrimidin-2-yl)-5,6,7,8-tetrahydro-1,6-naphthyridine-3-carboxamide]"
23,6.00 to 7.00,"CCS(=O)(=O)c1ccc(CNC(=O)c2cn(C)c3c(OC[C@H]4CC[C@H](C(F)(F)F)CC4)nccc23)cc1 [Hy5-4, N-(4-(ethylsulfonyl)benzyl)-1-methyl-7-(((1r,4r)-4-(trifluoromethyl)cyclohexyl)methoxy)-1H-pyrrolo[2,3-c]pyridine-3-carboxamide]"
24,6.00 to 7.00,"CCS(=O)(=O)c1ccc(CNC(=O)c2ccc3c(c2)C(C)(C)CN(Cc2cnc(C)cn2)[C@@H]3C(C)C)cc1 (single isomer, unassigned) [Hy2A-22.2]"

# Same assay, conditions: radio-ligand competition, RORγ LBD; head without unit (Tables 15, 17); read-out: Avg ROR Bind Ki
row,pKi,SMILES
1,6.00 to 7.00,"CCS(=O)(=O)c1ccc(CNC(=O)c2cc3ccnc(OC[C@H]4CC[C@H](C(F)(F)F)CC4)c3[nH]2)cc1 [Hy4-5, N-(4-(ethylsulfonyl)benzyl)-7-(((1r,4r)-4-(trifluoromethyl)cyclohexyl)methoxy)-1H-pyrrolo[2,3-c]pyridine-2-carboxamide]"
2,< 6.00,"CCOC(=O)c1cnc(N2CCc3cc(C(=O)NCc4ccc(S(=O)(=O)CC)cc4)cnc3[C@H]2C(C)C)nc1 (single isomer, unassigned) [Hy2B-4.1]"
3,6.00 to 7.00,"CCS(=O)(=O)c1ccc(CNC(=O)c2cnc3c(c2)CCN(c2ncc(C(F)(F)F)cn2)[C@H]3C(C)C)cc1 (single isomer, unassigned) [Hy2B-3.1]"
4,6.00 to 7.00,"CCOC(=O)c1cnc(N2CCc3cc(C(=O)NCc4ccc(S(=O)(=O)CC)cc4)cnc3[C@@H]2C(C)C)nc1C(F)(F)F (single isomer, unassigned) [Hy2B-5.2]"
5,< 6.00,"CCS(=O)(=O)c1ccc(CNC(=O)c2cnc3c(c2)CCN(c2ncc(C#N)cn2)[C@@H]3C(C)C)cc1 (single isomer, unassigned) [Hy2B-1.2]"
6,< 6.00,"CCOC(=O)c1cnc(N2CCc3cc(C(=O)NCc4ccc(S(=O)(=O)CC)cc4)cnc3[C@@H]2C(C)C)nc1 (single isomer, unassigned) [Hy2B-4.2]"
7,< 6.00,"CCS(=O)(=O)c1ccc(CNC(=O)c2cnc3c(c2)CCN(c2ncc(C#N)cn2)[C@H]3C(C)C)cc1 (single isomer, unassigned) [Hy2B-1.1]"
8,6.00 to 7.00,"CCS(=O)(=O)c1ccc(CNC(=O)c2cnc3c(c2)CCN(C[C@H]2CC[C@H](C(F)(F)F)CC2)[C@@H]3C(C)C)nc1 (single isomer, unassigned) [Hy2B-10.2]"
9,6.00 to 7.00,"CCS(=O)(=O)c1ccc(CNC(=O)c2cnc3c(c2)CCN(c2ncc(Cl)cn2)[C@H]3C(C)C)cc1 (single isomer, unassigned) [Hy2B-2.1]"
10,< 6.00,"CCS(=O)(=O)c1ccc(CNC(=O)c2cnc3c(c2)CCN(c2ncc(Cl)cn2)[C@@H]3C(C)C)cc1 (single isomer, unassigned) [Hy2B-2.2]"
11,< 6.00,"CCS(=O)(=O)c1ccc(CNC(=O)c2cnc3c(c2)CCN(Cc2ccc(C#N)cc2)C3C(C)C)cc1 (single isomer, unassigned) [Hy2B-7.2]"
12,6.00 to 7.00,"CCOC(=O)c1cnc(N2CCc3cc(C(=O)NCc4ccc(S(=O)(=O)CC)cc4)cnc3[C@H]2C(C)C)nc1C(F)(F)F (single isomer, unassigned) [Hy2B-5.1]"
